Laboratory results published in article PMC7311426, “An amphipathic peptide with antibiotic activity against multidrug-resistant Gram-negative bacteria” (Nature Communications, 2020).
In brackets after ≈: the same amount, converted by molar mass. Residues, ends and D or L forms follow the SMILES beside them.

Legend:
E. coli ATCC 25922 = test: microbe, parasite or virus in culture; format: cell-based, Escherichia coli; conditions: ATCC 25922
Procedure: Assays were performed in Mueller Hinton broth (MHB; BD, Cat. No. 211443) for bacteria, and yeast extract-peptone dextrose (YPD; Sigma-Aldrich, Y1500) for yeast. The concentrations of the peptides and comparator antibiotics/antifungals in the assay wells ranged from either 128 or 64 μg mL^−1, to 0.06 or 0.03 μg mL^−1 as a 12-point dose response plated as a 2-fold dilution series across the wells of the plate in duplicate for each independent biological replicate, using a final cell density of 5 × 10^5 CFU mL^−1 and 2.5 × 10^3 CFU mL^−1 for bacteria and yeast respectively. Final assay volumes were 100 μL per well with MICs determined visually following 18-20 h incubation at 37 °C for bacteria, 24 h incubation at 35 °C for Candida albicans, and 24 h incubation at 35 °C with resazurin addition (0.006%; Sigma-Aldrich, Cat # R7017) for a further 3 h for Cryptococcus neoformans, without shaking. Additional bacterial and yeast susceptibility assays were performed in Cation-Adjusted Mueller Hinton Broth (CAMHB; BD, Cat No. 212322) and Roswell Park Memorial Institute (RPMI) 1640 culture medium (Life Technologies Australia, Cat No. 21870092), respectively, as recommended by CLSI guidelines (M07 11th ed[36] and M27 4th ed[37]). […] However, for yeast it was determined that the YPD media was more reliable and robust between repeats and therefore MICs in this media are reported. […] Agarose MICs were determined in MHB with 1% agarose (Bioline molecular grade; Cat no: BIO-41025; high purity, high gel strength). All experiments were performed a minimum of six replicates (n ≥ 6).

[1] = test system: human erythrocytes (HRBC); format: cell-based; conditions: for Heamolysis HC10: red cells of human, 3 h
[2] = test system: HepG2 liver hepatocellular carcinoma cells; test: in vitro
Procedure: (§1) HEK-293 human embryonic kidney cells (ATCC CRL-1573), HepG2 liver hepatocellular carcinoma cells (ATCC HB-8065), and HK-2 human kidney proximal tubule cells (ATCC CRL-2190) cell lines were purchased from ATCC. Cytotoxicity of arenicin-3 variants was determined using the Alamar Blue (resazurin; Sigma-Aldrich, Cat # R7017), with 1% FBS for HK-2 and 10% FBS for HEK-293, and HepG2[40]. Cells were seeded as 2000 cells per well in black wall clear bottom 384-well plates (Corning®, Costar®, Cat # 3712). The cells were incubated for 24 h at 37 °C, 5% CO2. Then peptides were added into each cell containing well. After 24 h incubation, 5 μM resazurin were added per well and incubated at 37 °C for 2 h. Then the fluorescence intensity (FI) was read using a Polarstar® Omega plate reader with excitation/emission 560/590 and CC50 values were determined using Prism 8 following curve fitting and applying the following equation: Percentageviability = (FITEST-FINegative/FIUNTREATED-FINegative)×100.
(§2) Hemolytic activity was measured against isolated human erythrocytes from anonymously donated fresh human blood. Isolated erythrocytes were adjusted to 1 × 10^9 blood cells mL^−1 in phosphate-buffered saline (PBS, pH 7.4), added to the wells of NUNC polypropylene round-bottom 96-well plates (Sigma-Aldrich, Cat # P6866) then up to 300 μg mL^−1 of compound was added per well and incubated for 3 h at 37 °C. Following incubation, samples were centrifuged at 3000 rpm for 20 min, and the supernatants, 100 μL, were carefully collected for measurement. The degree of hemolysis in the samples was determined by measurement of the absorption of the supernatants at 540 nm using the Polarstar-Omega plate reader. 1% Triton-X100 was used as positive control for inducing 100% hemolysis. HC10 and HC50 values were determined using Prism 8 following curve fitting. The use of human blood (sourced from the Australian Red Cross Blood Service) for hemolysis assays was approved by the University of Queensland Institutional Human Research Ethics Committee, Approval Number 2014000031. All in vitro toxicity assays were performed for two independent biological replicates as an 8-point dose response of 3-fold dilution series in triplicate with the highest test concentration of 300 μg mL^−1.

in vitro = conditions: human
Procedure: as §1, §2

[3] = test system: HEK-293 human embryonic kidney cells; test: in vitro
Procedure: as §1, §2

[4] = test system: HK-2 human kidney proximal tubule cells; test: in vitro
Procedure: as §1, §2

E. coli = test: microbe, parasite or virus in culture
Procedure: (§3) Antimicrobial activity of arenicin-3 and its analogs was tested against a panel of bacterial and yeast strains by in vitro broth microdilution (BMD) assay with minimum inhibitory concentration (MIC) determination. Strains were purchased from American Type Culture Collection (ATCC) or obtained from clinical collaborators (full strain profiles provided in Supplementary Data 3). All peptides were prepared in Ringer’s acetate solution, and subsequently diluted fresh in water for each independent assay.
(§4) Assays were performed in Mueller Hinton broth (MHB; BD, Cat. No. 211443) for bacteria, and yeast extract-peptone dextrose (YPD; Sigma-Aldrich, Y1500) for yeast. The concentrations of the peptides and comparator antibiotics/antifungals in the assay wells ranged from either 128 or 64 μg mL^−1, to 0.06 or 0.03 μg mL^−1 as a 12-point dose response plated as a 2-fold dilution series across the wells of the plate in duplicate for each independent biological replicate, using a final cell density of 5 × 10^5 CFU mL^−1 and 2.5 × 10^3 CFU mL^−1 for bacteria and yeast respectively. Final assay volumes were 100 μL per well with MICs determined visually following 18-20 h incubation at 37 °C for bacteria, 24 h incubation at 35 °C for Candida albicans, and 24 h incubation at 35 °C with resazurin addition (0.006%; Sigma-Aldrich, Cat # R7017) for a further 3 h for Cryptococcus neoformans, without shaking. Additional bacterial and yeast susceptibility assays were performed in Cation-Adjusted Mueller Hinton Broth (CAMHB; BD, Cat No. 212322) and Roswell Park Memorial Institute (RPMI) 1640 culture medium (Life Technologies Australia, Cat No. 21870092), respectively, as recommended by CLSI guidelines (M07 11th ed[36] and M27 4th ed[37]). […] Agarose MICs were determined in MHB with 1% agarose (Bioline molecular grade; Cat no: BIO-41025; high purity, high gel strength). All experiments were performed a minimum of six replicates (n ≥ 6).

C. albicans = test: microbe, parasite or virus in culture; conditions: 24 h
Procedure: as §3, §4

K. pneumoniae = test: microbe, parasite or virus in culture
Procedure: as §3, §4

A. baumannii = test: microbe, parasite or virus in culture
Procedure: as §3, §4

S. aureus = test: microbe, parasite or virus in culture
Procedure: as §3, §4

P. aeruginosa = test: microbe, parasite or virus in culture
Procedure: as §3, §4

Structure (SMILES)	MIC, MHB (E. coli ATCC 25922) [µg/mL]	Heamolysis HC10, Mean [1] [µg/mL]	Heamolysis HC10 [1] [µg/mL]	CC50 HepG2 [2] [µg/mL]	CC50 HepG2, Mean [2] [µg/mL]	CC50 at 24 h (in vitro; HEK-293 cells) [µg/mL]	CC50 at 24 h (in vitro; HK-2 cells) [µg/mL]	CC50 at 24 h (in vitro; HepG2 cells) [µg/mL]	CC50 HEK293 [3] [µg/mL]	CC50 HEK293, Mean [3] [µg/mL]	CC50 HK2 [4] [µg/mL]	CC50 HK2, Mean [4] [µg/mL]	BMD MIC (E. coli) [µg/mL]	BMD MIC (C. albicans) [µg/mL]	BMD MIC (K. pneumoniae) [µg/mL]	BMD MIC (A. baumannii) [µg/mL]	BMD MIC (S. aureus) [µg/mL]	BMD MIC (P. aeruginosa) [µg/mL]
CC(C)[C@@H]1NC(=O)CNC(=O)[C@H](CC(N)=O)NC(=O)[C@H](CCCNC(=N)N)NC(=O)[C@H](Cc2ccc(O)cc2)NC(=O)[C@H](C(C)C)NC(=O)[C@@H]2CSSC[C@H](NC(=O)[C@H](C)NC(=O)[C@H](CCCNC(=N)N)NC1=O)C(=O)N[C@@H](Cc1ccc(O)cc1)C(=O)N[C@@H](CCCNC(=N)N)C(=O)N[C@@H](CCCNC(=N)N)C(=O)N[C@H](C(=O)N[C@@H](CC(N)=O)C(=O)O)CSSC[C@H](NC(=O)[C@H](Cc1ccccc1)NC(=O)CN)C(=O)N[C@@H](Cc1c[nH]c3ccccc13)C(=O)N[C@@H](CCCNC(=N)N)C(=O)N[C@@H](C)C(=O)N2 [NZ17228] (HELM PEPTIDE1{G.F.C.W.R.A.C.V.Y.R.N.G.V.R.A.C.Y.R.R.C.N}$PEPTIDE1,PEPTIDE1,3:R3-20:R3|PEPTIDE1,PEPTIDE1,7:R3-16:R3$$$V2.0)	0.125 (≈ 0.049 µM)	>300	>300	>300	>300	> 300	> 250	> 300	>300	>300	>255	>250	0.125	64	0.25	1	64	0.5
CC(C)C[C@@H]1NC(=O)CNC(=O)[C@H](CC(N)=O)NC(=O)[C@H](CCCNC(=N)N)NC(=O)[C@H](CO)NC(=O)[C@H](C)NC(=O)[C@@H]2CSSC[C@H](NC(=O)[C@H](C(C)C)NC(=O)[C@H](CCCNC(=N)N)NC1=O)C(=O)N[C@@H](Cc1ccc(O)cc1)C(=O)N[C@@H](CCCNC(=N)N)C(=O)N[C@@H](CCCNC(=N)N)C(=O)N[C@H](C(=O)N[C@@H](CC(N)=O)C(=O)O)CSSC[C@H](NC(=O)[C@H](Cc1ccccc1)NC(=O)CN)C(=O)N[C@@H](Cc1c[nH]c3ccccc13)C(=O)N[C@@H](CCCNC(=N)N)C(=O)N[C@@H](C(C)C)C(=O)N2 [NZ17125] (HELM PEPTIDE1{G.F.C.W.R.V.C.A.S.R.N.G.L.R.V.C.Y.R.R.C.N}$PEPTIDE1,PEPTIDE1,3:R3-20:R3|PEPTIDE1,PEPTIDE1,7:R3-16:R3$$$V2.0)	0.125 (≈ 0.0497 µM)	181			299 (≈ 119 µM)	250 (≈ 99.4 µM)	110 (≈ 43.7 µM)	299 (≈ 119 µM)		250 (≈ 99.4 µM)		110 (≈ 43.7 µM)	0.125	64	0.25	1	64	0.25
CC(C)[C@@H]1NC(=O)CNC(=O)[C@H](CC(N)=O)NC(=O)[C@H](CCCNC(=N)N)NC(=O)[C@H](CCCNC(=N)N)NC(=O)[C@H](C)NC(=O)[C@@H]2CSSC[C@H](NC(=O)[C@H](C(C)C)NC(=O)[C@H](CCCNC(=N)N)NC1=O)C(=O)N[C@@H](Cc1ccc(O)cc1)C(=O)N[C@@H](CCCNC(=N)N)C(=O)N[C@@H](CCCNC(=N)N)C(=O)N[C@H](C(=O)N[C@@H](CC(N)=O)C(=O)O)CSSC[C@H](NC(=O)[C@H](Cc1ccccc1)NC(=O)CN)C(=O)N[C@@H](Cc1c[nH]c3ccccc13)C(=O)N[C@@H](Cc1c[nH]cn1)C(=O)N[C@@H](C(C)C)C(=O)N2 [NZ17224] (HELM PEPTIDE1{G.F.C.W.H.V.C.A.R.R.N.G.V.R.V.C.Y.R.R.C.N}$PEPTIDE1,PEPTIDE1,3:R3-20:R3|PEPTIDE1,PEPTIDE1,7:R3-16:R3$$$V2.0)	0.06 (≈ 0.0235 µM)	>300	>300	>300	>300	> 300	> 250	> 300	>300	>300	>255	>250	0.06	32	0.25	0.5	64	0.25
CC(C)[C@@H]1NC(=O)CNC(=O)[C@H](CC(N)=O)NC(=O)[C@H](CCCNC(=N)N)NC(=O)[C@H](CCCCN)NC(=O)[C@H](C(C)C)NC(=O)[C@@H]2CSSC[C@H](NC(=O)[C@H](CO)NC(=O)[C@H](CCCNC(=N)N)NC1=O)C(=O)N[C@@H](Cc1ccc(O)cc1)C(=O)N[C@@H](CCCNC(=N)N)C(=O)N[C@@H](CCCNC(=N)N)C(=O)N[C@H](C(=O)N[C@@H](CC(N)=O)C(=O)O)CSSC[C@H](NC(=O)[C@H](Cc1ccccc1)NC(=O)CN)C(=O)N[C@@H](Cc1c[nH]c3ccccc13)C(=O)N[C@@H](Cc1ccc(O)cc1)C(=O)N[C@@H](C(C)C)C(=O)N2 [NZ17160] (HELM PEPTIDE1{G.F.C.W.Y.V.C.V.K.R.N.G.V.R.S.C.Y.R.R.C.N}$PEPTIDE1,PEPTIDE1,3:R3-20:R3|PEPTIDE1,PEPTIDE1,7:R3-16:R3$$$V2.0)	0.125 (≈ 0.0487 µM)	>300	>300	>300	>300	> 300	> 250	> 300	>300	>300	>257	>250	0.125	64	0.25	1	>64	0.5
